The record followed here is patent US11214803B2, “Modulators of YAP1 expression” (Ionis Pharmaceuticals, Inc., priority 2019, dated 2022).

Strand notation (5' to 3'): a small letter for the sugar, then the base; units joined by * are phosphorothioate-linked, units joined directly phosphodiester-linked; [ ] holds rarer units or linkages, { } end groups; capitals alone tell only the bases. k = constrained ethyl (cEt); [5mC] = 5-methylcytosine; d = 2'-deoxy (DNA)

The subject of this data set is Yap1 mRNA. In words: Antisense inhibition of human Yap1 in A-431 cells by cEt gapmers, single dose (Example 2, RTS4814). Type of data set: cell-based. The essentials:
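A-431 cells (5,000/well) received 2,000 nM oligonucleotide by free uptake for about 48 h. Yap1 mRNA was then quantified by RT-qPCR with primer probe set RTS4814, normalized to RIBOGREEN total RNA, and reported as % of untreated control; asterisked values mark oligos inside the amplicon.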

Where [1] appears, read: Table 33, Yap1 mRNA, percent of untreated control, 3-10-3 cEt gapmers targeting SEQ ID NO.: 1, and 2.
The mark [2] stands for this setting: Table 18, A-431 cells, 5,000 cells per well, free uptake, 2,000 nM modified oligonucleotide, approx. 48 hours, RTS4814, normalized to RIBOGREEN, Yap1 mRNA as percent of untreated control.
Setting [3] is: Table 19, A-431 cells, 5,000 cells per well, free uptake, 2,000 nM modified oligonucleotide, approx. 48 hours, RTS4814, normalized to RIBOGREEN, Yap1 mRNA as percent of untreated control.
Setting [4] is: Table 20, Yap1 mRNA, percent of untreated control, 3-10-3 cEt gapmers targeting SEQ ID NO.: 1 and 2.
The mark [5] stands for this setting: Table 21, Yap1 mRNA, percent of untreated control, 3-10-3 cEt gapmers targeting SEQ ID NO.: 1 and 2.
[6] abbreviates: Table 22, Yap1 mRNA as percent of untreated control, 3-10-3 cEt gapmers, single dose.
[7] abbreviates: Table 23, Yap1 mRNA as percent of untreated control, 3-10-3 cEt gapmers, single dose.

As to “1074163 (k[5mC]*kA*kG*dG*d[5mC]*dG*dA*dG*d[5mC]*dG*dA*dG*dG*kG*k[5mC]*kT; antisense) [compound 1074163]”, the “YAP1 (% UTC)” value under setting [1] is 118 % UTC.
Consider “1074180 (antisense k[5mC]*k[5mC]*kG*dG*dG*dA*dT*d[5mC]*d[5mC]*dA*dT*dG*dG*k[5mC]*kT*kT) [Compound 1074180]”, for which the “YAP1 (% UTC)” value under setting [2] was found to be 86 % UTC.
“1074181 (antisense k[5mC]*k[5mC]*k[5mC]*dG*dG*dG*dA*dT*d[5mC]*d[5mC]*dA*dT*dG*kG*k[5mC]*kT) [Compound 1074181]”: the “YAP1 (% UTC)” value under setting [3] was 107 % UTC.
Regarding “1074182 (antisense kG*k[5mC]*k[5mC]*d[5mC]*dG*dG*dG*dA*dT*d[5mC]*d[5mC]*dA*dT*kG*kG*k[5mC]) [Compound 1074182]”, the “YAP1 (% UTC)” value under setting [4] is on record as 82 % UTC.
In the case of “1074183 (antisense k[5mC]*k[5mC]*kG*dG*dT*dT*dG*dA*dG*dG*d[5mC]*dG*dG*k[5mC]*kG*kG) [Compound 1074183]”, the “YAP1 (% UTC)” value under setting [5] is 90 % UTC.
As to “1074184 (antisense kG*k[5mC]*k[5mC]*dG*dG*dT*dT*dG*dA*dG*dG*d[5mC]*dG*kG*k[5mC]*kG) [Compound 1074184]”, the “YAP1 (% UTC)” value under setting [6] is listed as 100 % UTC.
In the case of “1074185 (antisense kG*kG*k[5mC]*d[5mC]*dG*dG*dT*dT*dG*dA*dG*dG*d[5mC]*kG*kG*k[5mC]) [Compound 1074185]”, under setting [7], the “YAP1 (% UTC)” value is on record as 91 % UTC.
As to “1074186 (antisense kG*kG*kG*d[5mC]*d[5mC]*dG*dG*dT*dT*dG*dA*dG*dG*k[5mC]*kG*kG) [Compound 1074186]”, for the setting “Table 24, Yap1 mRNA as percent of untreated control, 3-10-3 cEt gapmers targeting SEQ ID NO.: 1, and 2”, the “YAP1 (% UTC)” value is 74 % UTC.
For the substance “1074187 (antisense k[5mC]*kT*kG*d[5mC]*dG*dA*dA*dG*dG*d[5mC]*dG*dG*d[5mC]*kT*kG*k[5mC]) [Compound 1074187]”, the “YAP1 (% UTC)” value (Table 25, Yap1 mRNA as percent of untreated control, 3-10-3 cEt gapmers targeting SEQ ID NO.: 1, and 2) worked out at 47 % UTC.
“1074192 (antisense kG*kA*k[5mC]*dG*dG*d[5mC]*dG*dG*dG*d[5mC]*d[5mC]*d[5mC]*dT*kG*k[5mC]*k[5mC]) [compound 1074192]”: under “Yap1 mRNA as percent of untreated control, A-431 cells, 3-10-3 cEt gapmers targeting SEQ ID NO.: 1, and 2, Table 30”, the “YAP1 (% UTC)” value came to 108 % UTC.
With “1074193 (antisense kG*kG*kT*d[5mC]*d[5mC]*dG*dG*dA*d[5mC]*dG*dG*d[5mC]*dG*kG*kG*k[5mC]) [compound 1074193]”, under “Yap1 mRNA as percent of untreated control, A-431 cells, 3-10-3 cEt gapmers targeting SEQ ID NO.: 1, and 2, Table 31”, the “YAP1 (% UTC)” value is recorded as 74 % UTC.
In the case of “1074194 (antisense k[5mC]*k[5mC]*kG*dG*dG*dT*d[5mC]*d[5mC]*dG*dG*dA*d[5mC]*dG*kG*k[5mC]*kG) [compound 1074194]”, where the note is “Table 32, Yap1 mRNA, percent of untreated control, 3-10-3 cEt gapmers targeting SEQ ID NO.: 1, and 2”, the “YAP1 (% UTC)” value came to 57 % UTC.
As to “1074195 (antisense k[5mC]*k[5mC]*k[5mC]*dG*dG*dG*dT*d[5mC]*d[5mC]*dG*dG*dA*d[5mC]*kG*kG*k[5mC]) [compound 1074195]”, the “YAP1 (% UTC)” value under setting [1] is listed as 79 % UTC.
As for “1074212 (antisense kG*k[5mC]*kT*dT*d[5mC]*d[5mC]*dG*dG*dA*dG*d[5mC]*d[5mC]*dT*k[5mC]*kA*kT) [Compound 1074212]”, the “YAP1 (% UTC)” value under setting [2] is 53 % UTC.
In the case of “1074213 (antisense kG*kA*kG*dT*d[5mC]*dG*dG*dG*d[5mC]*dA*dG*d[5mC]*dT*kT*k[5mC]*k[5mC]) [Compound 1074213]”, the “YAP1 (% UTC)” value under setting [3] is given as 55 % UTC.
Regarding “1074214 (antisense kT*k[5mC]*k[5mC]*dG*dG*d[5mC]*dG*dG*d[5mC]*dT*dT*dG*dA*kA*kG*kA) [Compound 1074214]”, under setting [4], the “YAP1 (% UTC)” value is reported as 89 % UTC.
For “1074215 (antisense kG*k[5mC]*kT*d[5mC]*d[5mC]*dG*dG*d[5mC]*dG*dG*d[5mC]*dT*dT*kG*kA*kA) [Compound 1074215]”, the “YAP1 (% UTC)” value under setting [5] stood at 77 % UTC.
Turning to “1074216 (antisense kG*kA*kT*dT*dT*dG*dG*dG*d[5mC]*dT*d[5mC]*d[5mC]*dG*kG*k[5mC]*kG) [Compound 1074216]”, the “YAP1 (% UTC)” value under setting [6] is on record as 58 % UTC.
As for “1074217 (antisense kG*kG*kA*dT*dT*dT*dG*dG*dG*d[5mC]*dT*d[5mC]*d[5mC]*kG*kG*k[5mC]) [Compound 1074217]”, under setting [7], the “YAP1 (% UTC)” value is 74 % UTC.
